Measured values reported in patent US12624044B2, “SMARCA degraders and uses thereof” (Kymera Therapeutics, Inc., priority 2019, dated 2026).
Values belong to the molecule of their own block, whether it stands above or below them.

Target: SMARCA2 (Homo sapiens, UniProt P51531)
Assay: MSD SMARCA2 degradation in NCI-H1299 cell line (24 h)
Assay type: cell-based
Set-up: HC: NCI-H1299 cells treated with DMSO; host or cells: NCI-H1299
Details: for Dmax: NCI-H1299, NCI-H1299 cells; for DC50: NCI-H1299 cells, read-out: SMARCA2 MSD H1299 degradation 24 h: External Abs-DC50
Method in brief: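 SMARCA2 measured by MSD electrochemiluminescence (primary 0.3 ug/ml, secondary 1 ug/ml) on lysates from NCI-H1299 cells exposed to compounds for 24 h across nine 3-fold dilutions. Signal scaled from A2780 cells (no SMARCA2) to DMSO-treated H1299 controls, and maximal degradation after 24 h reported in letter categories.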

Sequence of SMARCA2 (P51531 whole entry): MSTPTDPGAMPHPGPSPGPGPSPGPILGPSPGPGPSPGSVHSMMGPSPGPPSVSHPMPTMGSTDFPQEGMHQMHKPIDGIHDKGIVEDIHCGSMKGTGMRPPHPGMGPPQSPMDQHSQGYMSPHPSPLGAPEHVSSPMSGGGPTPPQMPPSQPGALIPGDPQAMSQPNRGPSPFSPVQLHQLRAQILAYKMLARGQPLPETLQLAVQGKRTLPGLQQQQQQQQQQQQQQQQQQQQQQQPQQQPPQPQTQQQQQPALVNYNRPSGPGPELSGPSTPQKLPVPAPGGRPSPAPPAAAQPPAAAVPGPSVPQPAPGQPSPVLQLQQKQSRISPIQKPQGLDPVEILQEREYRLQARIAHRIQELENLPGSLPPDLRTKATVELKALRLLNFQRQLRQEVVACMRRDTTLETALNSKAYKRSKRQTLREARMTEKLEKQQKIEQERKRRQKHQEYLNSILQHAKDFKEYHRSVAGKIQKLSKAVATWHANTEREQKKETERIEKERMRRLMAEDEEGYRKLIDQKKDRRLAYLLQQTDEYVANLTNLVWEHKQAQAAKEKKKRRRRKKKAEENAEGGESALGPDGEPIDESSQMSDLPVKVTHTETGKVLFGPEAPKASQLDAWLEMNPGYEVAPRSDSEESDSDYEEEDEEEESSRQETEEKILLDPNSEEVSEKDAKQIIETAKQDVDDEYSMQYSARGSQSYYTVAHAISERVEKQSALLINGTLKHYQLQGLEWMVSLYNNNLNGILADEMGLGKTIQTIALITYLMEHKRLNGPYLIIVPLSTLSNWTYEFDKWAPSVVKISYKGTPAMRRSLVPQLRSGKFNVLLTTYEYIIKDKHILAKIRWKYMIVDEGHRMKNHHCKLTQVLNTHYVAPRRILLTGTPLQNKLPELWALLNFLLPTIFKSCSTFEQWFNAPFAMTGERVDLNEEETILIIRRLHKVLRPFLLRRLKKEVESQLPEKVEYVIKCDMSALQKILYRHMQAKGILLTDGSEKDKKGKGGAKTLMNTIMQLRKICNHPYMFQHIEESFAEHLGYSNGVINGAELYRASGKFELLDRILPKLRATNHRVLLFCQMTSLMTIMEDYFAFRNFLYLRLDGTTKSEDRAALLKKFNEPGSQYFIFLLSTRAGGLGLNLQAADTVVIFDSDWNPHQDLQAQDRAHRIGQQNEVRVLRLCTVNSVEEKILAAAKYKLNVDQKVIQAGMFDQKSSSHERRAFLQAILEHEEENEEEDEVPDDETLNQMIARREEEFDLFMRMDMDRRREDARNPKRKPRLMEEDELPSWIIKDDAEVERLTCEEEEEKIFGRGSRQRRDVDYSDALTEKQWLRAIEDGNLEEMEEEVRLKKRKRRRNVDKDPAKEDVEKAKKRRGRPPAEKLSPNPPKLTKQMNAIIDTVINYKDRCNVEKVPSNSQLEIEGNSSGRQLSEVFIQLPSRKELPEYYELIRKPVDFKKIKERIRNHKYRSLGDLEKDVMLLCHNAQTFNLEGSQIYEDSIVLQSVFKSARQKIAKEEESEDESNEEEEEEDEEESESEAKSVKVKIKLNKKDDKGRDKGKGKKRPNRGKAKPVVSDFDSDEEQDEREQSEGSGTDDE

Structure (SMILES): Cn1c(=O)n(C2CCC(=O)NC2=O)c2ccc(CCCOCCN3CCN(Cc4ccc(-c5cc(-c6ccccc6O)nnc5N)cc4)CC3)cc21 (centres unmarked) [I-105, 3-[5-[3-[2-[4-[[4-[3-amino-6-(2-hydroxyphenyl)pyridazin-4-yl]phenyl]methyl]piperazin-1-yl]ethoxy]propyl]-3-methyl-2-oxo-benzimidazol-1-yl]piperidine-2,6-dione]
Dmax: < 50% | DC50: > 1000 nM

Structure (SMILES): Cn1c(=O)n(C2CCC(=O)NC2=O)c2cccc(CCCOCCN3CCN(Cc4ccc(-c5cc(-c6ccccc6O)nnc5N)cc4)CC3)c21 (centres unmarked) [I-106]
Dmax: 50 to 70% | DC50: 100 to 500 nM

Structure (SMILES): Cn1c(=O)n(C2CCC(=O)NC2=O)c2cccc(CCCOCCOCCN3CCN(Cc4ccc(-c5cc(-c6ccccc6O)nnc5N)cc4)CC3)c21 (centres unmarked) [I-107]
Dmax: 50 to 70% | DC50: 100 to 500 nM

Structure (SMILES): Cn1c(=O)n(C2CCC(=O)NC2=O)c2cccc(CCCOCCOCCOCCN3CCN(Cc4ccc(-c5cc(-c6ccccc6O)nnc5N)cc4)CC3)c21 (centres unmarked) [I-108]
Dmax: < 50% | DC50: > 1000 nM

Structure (SMILES): CN(CCCN1CCC(c2cccc3c2n(C)c(=O)n3C2CCC(=O)NC2=O)CC1)Cc1ccc(N2CCN(c3cc(-c4ccccc4O)nnc3N)CC2)cc1 (centres unmarked) [I-110]
Dmax: > 90% | DC50: 100 to 500 nM

Structure (SMILES): CN(Cc1ccc(N2CCN(c3cc(-c4ccccc4O)nnc3N)CC2)cc1)CC1CCN(c2ccc3c(c2)n(C)c(=O)n3C2CCC(=O)NC2=O)CC1 (centres unmarked) [I-114]
Dmax: 50 to 70% | DC50: < 100 nM

Structure (SMILES): Cn1c(=O)n(C2CCC(=O)NC2=O)c2cccc(C#CCN3CCO[C@H](CNCc4ccc(N5CCN(c6cc(-c7ccccc7O)nnc6N)CC5)cc4)C3)c21 (some centres unmarked) [I-118]
Dmax: < 50% | DC50: > 1000 nM

Structure (SMILES): Cn1c(=O)n(C2CCC(=O)NC2=O)c2ccc(CN3CCN(CCO[C@H]4C[C@H](NCc5ccc(N6CCN(c7cc(-c8ccccc8O)nnc7N)CC6)cc5)C4)CC3)cc21 (some centres unmarked) [I-131]
Dmax: 70 to 90% | DC50: > 1000 nM

Structure (SMILES): Cn1c(=O)n(C2CCC(=O)NC2=O)c2cccc(CCCOCCOCCOCCOCCN3CCN(Cc4ccc(-c5cc(-c6ccccc6O)nnc5N)cc4)CC3)c21 (centres unmarked) [I-133]
Dmax: < 50% | DC50: > 1000 nM

Structure (SMILES): Cn1c(=O)n(C2CCC(=O)NC2=O)c2ccc(CCCOCCOCCOCCN3CCN(Cc4ccc(-c5cc(-c6ccccc6O)nnc5N)cc4)CC3)cc21 (centres unmarked) [I-134]
Dmax: 50 to 70% | DC50: 100 to 500 nM

Structure (SMILES): Cn1c(=O)n(C2CCC(=O)NC2=O)c2ccc(CCCOCCOCCN3CCN(Cc4ccc(-c5cc(-c6ccccc6O)nnc5N)cc4)CC3)cc21 (centres unmarked) [I-135]
Dmax: 50 to 70% | DC50: 100 to 500 nM

Structure (SMILES): Cn1c(=O)n(C2CCC(=O)NC2=O)c2ccc(CCCOCCCOCCN3CCN(Cc4ccc(-c5cc(-c6ccccc6O)nnc5N)cc4)CC3)cc21 (centres unmarked) [I-136]
Dmax: 50 to 70% | DC50: 100 to 500 nM

Structure (SMILES): Cn1c(=O)n(C2CCC(=O)NC2=O)c2ccc(C#CCOCCOCCN3CCN(Cc4ccc(-c5cc(-c6ccccc6O)nnc5N)cc4)CC3)cc21 (centres unmarked) [I-137]
Dmax: < 50% | DC50: > 1000 nM

Structure (SMILES): Cn1c(=O)n(C2CCC(=O)NC2=O)c2ccc(CCCOCCCCN3CCN(Cc4ccc(-c5cc(-c6ccccc6O)nnc5N)cc4)CC3)cc21 (centres unmarked) [I-138]
Dmax: 50 to 70% | DC50: < 100 nM

Structure (SMILES): Cn1c(=O)n(C2CCC(=O)NC2=O)c2ccc(CCCN3CCN(Cc4ccc(-c5cc(-c6ccccc6O)nnc5N)cc4)CC3)cc21 (centres unmarked) [I-139]
Dmax: 50 to 70% | DC50: < 100 nM

Structure (SMILES): Cn1c(=O)n(C2CCC(=O)NC2=O)c2cccc(CCCOCCCN3CCN(Cc4ccc(-c5cc(-c6ccccc6O)nnc5N)cc4)CC3)c21 (centres unmarked) [I-140]
Dmax: 70 to 90% | DC50: < 100 nM

Structure (SMILES): Cn1c(=O)n(C2CCC(=O)NC2=O)c2ccc(COCCCN3CCN(Cc4ccc(-c5cc(-c6ccccc6O)nnc5N)cc4)CC3)cc21 (centres unmarked) [I-141]
Dmax: < 50% | DC50: 100 to 500 nM

Structure (SMILES): Cn1c(=O)n(C2CCC(=O)NC2=O)c2ccc(CCCCCCCCOc3cccc(CN4CCN(c5cc(-c6ccccc6O)nnc5N)CC4)c3)cc21 (centres unmarked) [I-142]
Dmax: < 50% | DC50: > 1000 nM

Structure (SMILES): Cn1c(=O)n(C2CCC(=O)NC2=O)c2ccc(CCCCCCCCCOc3cccc(CN4CCN(c5cc(-c6ccccc6O)nnc5N)CC4)c3)cc21 (centres unmarked) [I-143]
Dmax: < 50% | DC50: > 1000 nM

Structure (SMILES): Cn1c(=O)n(C2CCC(=O)NC2=O)c2ccc(CCCCCCCCCCOc3cccc(CN4CCN(c5cc(-c6ccccc6O)nnc5N)CC4)c3)cc21 (centres unmarked) [I-144]
Dmax: 50 to 70% | DC50: > 1000 nM

Structure (SMILES): Cn1c(=O)n(C2CCC(=O)NC2=O)c2ccc(CCCCCCCCCCCOc3cccc(CN4CCN(c5cc(-c6ccccc6O)nnc5N)CC4)c3)cc21 (centres unmarked) [I-145]
Dmax: < 50% | DC50: > 1000 nM

Structure (SMILES): Cn1c(=O)n(C2CCC(=O)NC2=O)c2ccc(CCCCCCCN3CCC(Cn4cc(-c5cc(-c6ccccc6O)nnc5N)cn4)CC3)cc21 (centres unmarked) [I-146]
Dmax: 70 to 90% | DC50: < 100 nM

Structure (SMILES): Cn1c(=O)n(C2CCC(=O)NC2=O)c2ccc(CCCCCCCCN3CCC(Cn4cc(-c5cc(-c6ccccc6O)nnc5N)cn4)CC3)cc21 (centres unmarked) [I-147]
Dmax: 70 to 90% | DC50: 100 to 500 nM

Structure (SMILES): Cn1c(=O)n(C2CCC(=O)NC2=O)c2ccc(CCCCCCCCCN3CCC(Cn4cc(-c5cc(-c6ccccc6O)nnc5N)cn4)CC3)cc21 (centres unmarked) [I-148]
Dmax: > 90% | DC50: < 100 nM

Structure (SMILES): Cn1c(=O)n(C2CCC(=O)NC2=O)c2cccc(CCCCCCCN3CCC(Cn4cc(-c5cc(-c6ccccc6O)nnc5N)cn4)CC3)c21 (centres unmarked) [I-149, 3-[4-[7-[4-[[4-[3-amino-6-(2-hydroxyphenyl)pyridazin-4-yl]pyrazol-1-yl]methyl]-1-piperidyl]heptyl]-3-methyl-2-oxo-benzimidazol-1-yl]piperidine-2,6-dione]
Dmax: > 90% | DC50: < 100 nM

Structure (SMILES): Cn1c(=O)n(C2CCC(=O)NC2=O)c2cccc(CCCCCCCCN3CCC(Cn4cc(-c5cc(-c6ccccc6O)nnc5N)cn4)CC3)c21 (centres unmarked) [I-150]
Dmax: > 90% | DC50: < 100 nM

Structure (SMILES): Cn1c(=O)n(C2CCC(=O)NC2=O)c2cccc(CCCCCCCCCN3CCC(Cn4cc(-c5cc(-c6ccccc6O)nnc5N)cn4)CC3)c21 (centres unmarked) [I-151]
Dmax: > 90% | DC50: 100 to 500 nM

The next lines start with the values.

Dmax: 70 to 90% | DC50: 100 to 500 nM
Structure (SMILES): CN(Cc1ccc(N2CCN(c3cc(-c4ccccc4O)nnc3N)CC2)cc1)C1CCN(Cc2cccc3c2n(C)c(=O)n3C2CCC(=O)NC2=O)CC1 (centres unmarked) [I-109]

Dmax: 70 to 90% | DC50: 100 to 500 nM
Structure (SMILES): CN(CC[C@@H]1CN(CCCc2cccc3c2n(C)c(=O)n3C2CCC(=O)NC2=O)CCO1)Cc1ccc(N2CCN(c3cc(-c4ccccc4O)nnc3N)CC2)cc1 (some centres unmarked) [I-111]

Dmax: < 50% | DC50: > 1000 nM
Structure (SMILES): CN(CCCOCCCc1cccc2c1n(C)c(=O)n2C1CCC(=O)NC1=O)Cc1ccc(N2CCN(c3cc(-c4ccccc4O)nnc3N)CC2)cc1 (centres unmarked) [I-112]

Dmax: < 50% | DC50: > 1000 nM
Structure (SMILES): CN1C(=O)CCC(n2c(=O)n(C)c3c(CCCOCCOCCNCc4ccc(N5CCN(c6cc(-c7ccccc7O)nnc6N)CC5)cc4)cccc32)C1=O (centres unmarked) [I-113]

Dmax: 70 to 90% | DC50: 100 to 500 nM
Structure (SMILES): Cn1c(=O)n(C2CCC(=O)NC2=O)c2cccc(CCCOC3CCN(Cc4ccc(N5CCN(c6cc(-c7ccccc7O)nnc6N)CC5)cc4)CC3)c21 (centres unmarked) [I-115]

Dmax: 50 to 70% | DC50: 501 to 1000 nM
Structure (SMILES): Nc1nnc(-c2ccccc2O)cc1N1CCN(c2ccc(CNCCOCCCc3cccc4c3oc(=O)n4C3CCC(=O)NC3=O)cc2)CC1 (centres unmarked) [I-116]

Dmax: 70 to 90% | DC50: 100 to 500 nM
Structure (SMILES): CN(Cc1ccc(N2CCN(c3cc(-c4ccccc4O)nnc3N)CC2)cc1)C[C@@H]1CN(CCCc2cccc3c2n(C)c(=O)n3C2CCC(=O)NC2=O)CCO1 (some centres unmarked) [I-117]

Dmax: 70 to 90% | DC50: 100 to 500 nM
Structure (SMILES): CN(CCCCOCCCCc1cccc2c1n(C)c(=O)n2C1CCC(=O)NC1=O)Cc1ccc(N2CCN(c3cc(-c4ccccc4O)nnc3N)CC2)cc1 (centres unmarked) [I-119]

Dmax: 50 to 70% | DC50: 501 to 1000 nM
Structure (SMILES): Cn1c(=O)n(C2CCC(=O)NC2=O)c2ccc(CCCN3CCO[C@@H](CNCc4ccc(N5CCN(c6cc(-c7ccccc7O)nnc6N)CC5)cc4)C3)cc21 (some centres unmarked) [I-120]

Dmax: 70 to 90% | DC50: < 100 nM
Structure (SMILES): Cn1c(=O)n(C2CCC(=O)NC2=O)c2cccc(CCCO[C@H]3C[C@H](N(C)Cc4ccc(N5CCN(c6cc(-c7ccccc7O)nnc6N)CC5)cc4)C3)c21 (some centres unmarked) [I-121]

Dmax: < 50% | DC50: > 1000 nM
Structure (SMILES): CN(CCCCc1ccc2c(c1)n(C)c(=O)n2C1CCC(=O)NC1=O)Cc1ccc(N2CCN(c3cc(-c4ccccc4O)nnc3N)CC2)cc1 (centres unmarked) [I-122]

Dmax: 70 to 90% | DC50: 100 to 500 nM
Structure (SMILES): CN(CCOCCOCCCc1ccc2c(c1)oc(=O)n2C1CCC(=O)NC1=O)Cc1ccc(N2CCN(c3cc(-c4ccccc4O)nnc3N)CC2)cc1 (centres unmarked) [I-123]

Dmax: 70 to 90% | DC50: 100 to 500 nM
Structure (SMILES): Cn1c(=O)n(C2CCC(=O)NC2=O)c2cccc(CCCOCC3CN(Cc4ccc(N5CCN(c6cc(-c7ccccc7O)nnc6N)CC5)cc4)C3)c21 (centres unmarked) [I-124]

Dmax: < 50% | DC50: > 1000 nM
Structure (SMILES): CN(CCOCCCc1ccc2c(c1)n(C)c(=O)n2C1CCC(=O)NC1=O)Cc1ccc(N2CCN(c3cc(-c4ccccc4O)nnc3N)CC2)cc1 (centres unmarked) [I-125]

Dmax: > 90% | DC50: 100 to 500 nM
Structure (SMILES): Nc1nnc(-c2ccccc2O)cc1N1CCN(c2ccc(CNCCOCCOCCCc3ccc4c(c3)oc(=O)n4C3CCC(=O)NC3=O)cc2)CC1 (centres unmarked) [I-126]

Dmax: 50 to 70% | DC50: > 1000 nM
Structure (SMILES): Nc1nnc(-c2ccccc2O)cc1N1CCN(c2ccc(CNCCCOCCCc3ccc4c(c3)oc(=O)n4C3CCC(=O)NC3=O)cc2)CC1 (centres unmarked) [I-127]

Dmax: > 90% | DC50: < 100 nM
Structure (SMILES): Cn1c(=O)n(C2CCC(=O)NC2=O)c2ccc(CCCCOCCCCNCc3ccc(N4CCN(c5cc(-c6ccccc6O)nnc5N)CC4)cc3)cc21 (centres unmarked) [I-128]

Dmax: > 90% | DC50: > 1000 nM
Structure (SMILES): CC(C)(CCOCCCc1cccc2c1oc(=O)n2C1CCC(=O)NC1=O)NCc1ccc(N2CCN(c3cc(-c4ccccc4O)nnc3N)CC2)cc1 (centres unmarked) [I-129]

Dmax: > 90% | DC50: < 100 nM
Structure (SMILES): CN(Cc1ccc(N2CCN(c3cc(-c4ccccc4O)nnc3N)CC2)cc1)CC1CCN(Cc2cccc3c2n(C)c(=O)n3C2CCC(=O)NC2=O)CC1 (centres unmarked) [I-132, 3-(4-((4-(((4-(4-(3-amino-6-(2-hydroxyphenyl)pyridazin-4-yl)piperazin-1-yl)benzyl)(methyl)amino)methyl)piperidin-1-yl)methyl)-3-methyl-2-oxo-2,3-dihydro-1H-benzo[d]imidazol-1-yl)piperidine-2,6-dione]
